Where two headings read alike, the source gives them in different places. Where a SMILES comes first, the peptide text is derived from it. [ ]: non-standard residue; d: D form. Arg(Me) = CNC(=N)NCCC[C@H](N)C(=O)O; Hyp = O=C(O)[C@@H]1C[C@@H](O)CN1; azaGly = NNC(=O)O
Experiments:
[1] = 1-month depot PK, prostate cancer patients; assay type: in vivo, human; conditions: for AUC(0-t) / Cmax / Tmax: male, human, plasma; for AUC(0-t): sc; for AUC(0-t) / Cmax / Tmax / Tlqc: prostate cancer patients; for AUC(0-t) / Cmax / Tlqc: geometric mean; for Tmax: read-out: Tmax (median)
Method: Another study enrolled prostate cancer patients who had completed their primary treatment for prostate cancer at least 6 months prior to screening and were either on GnRH therapy or were potential future candidates for GnRH therapy. Nine patients were enrolled, three in each dose group (6, 12, and 24 mg). All were white men. Patients received API-MA as a single 1-month depot SC injection into the abdomen that was intended to initiate both a high-burst release of API-MA and rapid stimulation of hypothalamic-pituitary-gonadal-axis, and was expected to suppress testosterone. Overall, 4 of 9 patients received concomitant GnRH therapy.

[2] = molecular target: T1, rat KISS1R (Rattus norvegicus, UniProt Q924U1); assay: Intracellular Ca2+ mobilization (fluorometric imaging plate reader), rat KISS1R; assay type: cell-based
T1 construct: expressed in transfected cells; host or cells: Chinese hamster ovary dihydrofolate reductase negative cells
Method: (§1) The effects of API-MA on intracellular Ca^2+ mobilization in KISS1R-expressing recombinant cells were evaluated by performing the fluorometric imaging plate reader assay.

[3] = molecular target: CYP3A4 (Homo sapiens, UniProt P08684); assay: Inhibition of recombinant CYP3A4; assay type: in vitro ADME
[4] = system: monkey KISS1R; assay: Intracellular Ca2+ mobilization (fluorometric imaging plate reader), monkey KISS1R; assay type: cell-based
Method: as §1

[5] = Tissue distribution and excretion of radioactivity in rats; assay type: in vivo
Method: The concentrations of the radioactivity in the tissues of male albino and pigmented rats were investigated after a single IV administration of [^14C]API-MA at 1.049 mg/kg (1 mg/kg API-FB). […] The radioactivity, measured in albino rats, was rapidly eliminated from all of the tissues after IV administration of API-MA.
The urinary, fecal, biliary, and expiratory excretion of the dosed radioactivity was investigated after a single SC or IV administration of [^14C]API-MA at 1.049 mg/kg (1 mg/kg API-FB) to male Sprague-Dawley rats in two studies.

[6] = Single dose PK, phase 1, healthy Japanese men; assay type: in vivo, human; conditions: for AUC(0-inf) / CL/F / Cmax / half-life: mean; for half-life: read-out: T½ (converted)
Method: Thirty-seven healthy Japanese male subjects aged 50 to 74 years were enrolled into nine cohorts. Subjects enrolled in the first […] cohorts received 0.001, 0.004, 0.01, 0.04, 0.1, 0.25 or 0.5 mg of API-MA or placebo by single SC bolus. In the 0.001 mg cohort, 3 subjects received API-MA and two received placebo. In the remaining cohorts, 3 subjects received API-MA and one received placebo. Subjects enrolled in the eighth and ninth cohorts received 0.25 or 0.5 mg of API-MA or placebo by single 2-hour SC infusion. In both cohorts, 3 subjects received API-MA and one received placebo. The plasma PK analysis set consisted of 31 subjects (bolus cohorts: 25; infusion cohorts: 6), and the urine PK analysis set consisted of 35 subjects (bolus cohorts: 27; infusion cohorts: 8).
To measure urinary excretion of API-MA, urine specimens were collected at the following nominal times: predose, 0 to 4, 4 to 8, 8 to 12, 12 to 24, 24 to 36, 36 to 48 and 48 to 72 hours postdose.

[7] = rats, IV 1 mg/kg API-FB, 24 hours postdose, first study
[8] = rats, IV 1 mg/kg API-FB, 48 hours postdose, second study
[9] = rats, SC 1 mg/kg API-FB, 24 hours postdose, first study
[10] = rats, SC 1 mg/kg API-FB, 48 hours postdose, second study
[11] = male, human, plasma, sc, 0.001 mg, single SC bolus 0.001 mg
[12] = male, human, plasma, sc, 0.004 mg, single SC bolus 0.004 mg

T1 sequence (Q924U1 whole entry): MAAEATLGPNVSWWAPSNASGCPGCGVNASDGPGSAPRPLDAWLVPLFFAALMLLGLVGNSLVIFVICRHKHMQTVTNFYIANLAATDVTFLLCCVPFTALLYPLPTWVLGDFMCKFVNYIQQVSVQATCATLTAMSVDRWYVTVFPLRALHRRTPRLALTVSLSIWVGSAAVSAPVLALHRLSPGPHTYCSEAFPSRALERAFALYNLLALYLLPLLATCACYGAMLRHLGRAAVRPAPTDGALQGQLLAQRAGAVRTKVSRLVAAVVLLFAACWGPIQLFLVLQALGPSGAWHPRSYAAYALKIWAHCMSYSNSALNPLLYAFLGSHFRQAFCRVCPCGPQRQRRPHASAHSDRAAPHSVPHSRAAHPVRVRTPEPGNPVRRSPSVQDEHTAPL
Sequence of CYP3A4 (P08684 whole entry): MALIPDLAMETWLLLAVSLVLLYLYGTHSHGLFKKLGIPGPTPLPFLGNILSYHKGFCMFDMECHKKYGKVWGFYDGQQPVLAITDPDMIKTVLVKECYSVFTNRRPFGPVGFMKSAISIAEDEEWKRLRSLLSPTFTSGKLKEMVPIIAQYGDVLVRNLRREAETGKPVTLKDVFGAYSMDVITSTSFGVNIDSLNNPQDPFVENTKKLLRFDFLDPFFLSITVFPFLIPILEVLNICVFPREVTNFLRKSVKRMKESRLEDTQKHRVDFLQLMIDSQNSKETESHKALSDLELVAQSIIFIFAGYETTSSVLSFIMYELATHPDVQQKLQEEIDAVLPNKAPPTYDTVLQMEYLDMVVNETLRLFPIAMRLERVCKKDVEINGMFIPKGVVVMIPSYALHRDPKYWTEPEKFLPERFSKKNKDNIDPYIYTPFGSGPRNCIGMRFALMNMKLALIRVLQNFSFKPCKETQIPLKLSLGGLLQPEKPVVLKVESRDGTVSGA

Compound: CC(=O)O.CNC(=N)NCCC[C@H](NC(=O)[C@H](CC(C)C)NC(=O)NNC(=O)[C@H](Cc1ccccc1)NC(=O)[C@@H](NC(=O)[C@H](CC(N)=O)NC(=O)[C@@H]1C[C@@H](O)CN1C(=O)[C@@H](Cc1ccc(O)cc1)NC(C)=O)[C@@H](C)O)C(=O)N[C@@H](Cc1c[nH]c2ccccc12)C(N)=O [API-MA, 2-(N-Acetyl-D-tyrosyl-trans-4-hydroxy-L-prolyl-Lasparaginyl-L-threonyl-L-phenylalanyl)-hydrazinocarbonyl-L-leucyl-Nω-methyl-L-arginyl-L-tryptophanamide monoacetate] (Ac-[dY][Hyp]NTF[azaGly]L[Arg(Me)]W-NH2)
- Detectability of API-MA in plasma ([1]; 1-month depot 6, 12 or 24 mg, all cases): not detectable by 8 weeks postdose
- AUC(0-24) as share of AUC(0-tlqc) ([1]; 1-month depot 6, 12 or 24 mg, burst phase): over 60%
- AUC(0-t) ([1]; 6 mg/month, 1-month depot SC 6 mg/month, read-out: AUC (0-24) (converted)): 79.6 ng·h/mL
- AUC(0-t) ([1]; 6 mg/month, 1-month depot SC 6 mg/month, read-out: AUC (0-29 d) (converted)): 104 ng·h/mL
- AUC(0-t) ([1]; 6 mg/month, 1-month depot SC 6 mg/month, read-out: AUC (0-tlqc) (converted)): 119 ng·h/mL
- AUC(0-t) ([1]; 12 mg/month, 1-month depot SC 12 mg/month, read-out: AUC (0-24) (converted)): 119 ng·h/mL
- AUC(0-t) ([1]; 12 mg/month, 1-month depot SC 12 mg/month, read-out: AUC (0-29 d) (converted)): 138 ng·h/mL
- AUC(0-t) ([1]; 12 mg/month, 1-month depot SC 12 mg/month, read-out: AUC (0-tlqc) (converted)): 158 ng·h/mL
- AUC(0-t) ([1]; 24 mg/month, 1-month depot SC 24 mg/month, read-out: AUC (0-24) (converted)): 179 ng·h/mL
- AUC(0-t) ([1]; 24 mg/month, 1-month depot SC 24 mg/month, read-out: AUC (0-29 d) (converted)): 209 ng·h/mL
- AUC(0-t) ([1]; 24 mg/month, 1-month depot SC 24 mg/month, read-out: AUC (0-tlqc) (converted)): 239 ng·h/mL
- Cmax ([1]; 1-month depot SC 6 mg/month): 16.5 ng/mL
- Tmax ([1]; 1-month depot SC 6 mg/month): 2 h
- Cmax ([1]; 1-month depot SC 12 mg/month): 14.4 ng/mL
- Tmax ([1]; 1-month depot SC 12 mg/month): 2.05 h
- Cmax ([1]; 1-month depot SC 24 mg/month): 25.5 ng/mL
- Tmax ([1]; 1-month depot SC 24 mg/month): 2.05 h
- Tlqc ([1]; 1-month depot SC 6 mg/month): 42.9 h
- Tlqc ([1]; 1-month depot SC 12 mg/month): 41.5 h
- Tlqc ([1]; 1-month depot SC 24 mg/month): 47.2 h
- EC50 [2]: 0.632 nM
- Ratio of EC50 of API-MA to kisspeptin (45-54) ([2]; rat KISS1R): 2.0
- IC50 [3]: > 7.78 nM
- EC50 ([4]; CHO dhfr- cells expressing monkey KISS1R): 0.074 nM
- Ratio of EC50 of API-MA to kisspeptin (45-54) ([4]; monkey KISS1R): 0.94
- Tissue distribution of radioactivity ([5]; male albino and pigmented rats, single IV 1 mg/kg API-FB): distributed widely into the tissues
- Affinity for melanin in vivo ([5]; pigmented rats, single IV 1 mg/kg API-FB): little affinity for melanin in vivo
- Excretion of radioactivity in bile [5, 7]: 20.7%
- Excretion of radioactivity in feces [5, 7]: 0.3%
- Excretion of radioactivity in urine [5, 7]: 76.6%
- Excretion of radioactivity in feces [5, 8]: 28.2%
- Excretion of radioactivity in urine [5, 8]: 70.0%
- Excretion of radioactivity in bile [5, 9]: 15.5%
- Excretion of radioactivity in feces [5, 9]: 0.2%
- Excretion of radioactivity in urine [5, 9]: 84.7%
- Excretion of radioactivity in feces [5, 10]: 20.4%
- Excretion of radioactivity in urine [5, 10]: 78.1%
- Excretion via expiration ([5]; rats, SC or IV 1 mg/kg API-FB, second study): minimal
- Time by which urinary excretion was essentially complete ([6]; cumulative urinary excretion): ≤ 24 h
- AUC(0-inf) [6, 11]: 0.0541 ng·h/mL
- CL/F [6, 11]: 310 mL/min
- Cmax [6, 11]: 0.0201 ng/mL
- half-life [6, 11]: 1.59 h
- Tmax ([6]; male, human, plasma, sc, 0.001 mg, single SC bolus 0.001 mg, read-out: Tmax, median (range)): 0.5 h
- AUC(0-inf) [6, 12]: 0.205 ng·h/mL
- CL/F [6, 12]: 330 mL/min
- Cmax [6, 12]: 0.00617 ng/mL
- half-life [6, 12]: 1.91 h

From patent publication US11013780B2, “Methods of treating female infertility” (Myovant Sciences GmbH, priority 2016, dated 2021)
